Assay results as given in US11331299B2, “Medicinal use of serrulatane diterpenes” (The University of Sydney, priority 2016, dated 2022).
“And” between values parts separate entries of the source, which are not always exact repeats. Equal entries are not always repeated. Where two headings read alike, the source gives them in different places.

Legend:
[1] = target: T1, Monoamine Oxidase MAO-A (Homo sapiens, UniProt P21397); test: Monoamine Oxidase MAO-A; type: biochemical; conditions: for remaining activity at 10 µM: read-out: % Control Response
T1 construct: host or cells: Insect Hi5 cells
T1 sequence (P21397 1-527): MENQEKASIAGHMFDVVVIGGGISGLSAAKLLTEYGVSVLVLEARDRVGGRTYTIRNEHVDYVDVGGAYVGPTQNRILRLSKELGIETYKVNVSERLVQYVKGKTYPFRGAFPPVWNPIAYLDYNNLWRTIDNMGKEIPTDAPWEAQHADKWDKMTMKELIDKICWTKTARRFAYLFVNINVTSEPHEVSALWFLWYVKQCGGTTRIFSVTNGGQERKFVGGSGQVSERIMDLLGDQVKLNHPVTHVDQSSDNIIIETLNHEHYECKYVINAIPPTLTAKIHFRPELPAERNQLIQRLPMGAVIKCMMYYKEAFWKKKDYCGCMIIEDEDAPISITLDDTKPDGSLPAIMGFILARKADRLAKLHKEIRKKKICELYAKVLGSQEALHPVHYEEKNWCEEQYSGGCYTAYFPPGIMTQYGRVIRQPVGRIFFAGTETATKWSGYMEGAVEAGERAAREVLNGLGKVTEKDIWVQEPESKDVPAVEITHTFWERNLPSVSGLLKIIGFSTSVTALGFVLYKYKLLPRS

[2] = target: HDAC2 (h) (Homo sapiens, UniProt Q92769); test: Epigenetic enzyme assay, Histone deacetylase (HDACs); type: biochemical; conditions: read-out: % Inhibition of Control Values
[3] = target: DNMT1 (h) (Homo sapiens, UniProt P26358); test: Epigenetic enzyme assay, DNA methyltransferases (DNMTs); type: biochemical; conditions: read-out: % Inhibition of Control Values
[4] = target: JARID1B (h) (Homo sapiens, UniProt Q9UGL1); test: Epigenetic enzyme assay, Demethylases (KDMs); type: biochemical; conditions: for inhibition at 10 µM: read-out: % Inhibition of Control Values
[5] = target: T2, SMARCA2 (h) bromodomain (Homo sapiens, UniProt P51531); test: Epigenetic binding assay, Bromodomain; conditions: for inhibition at 10 µM: read-out: % Inhibition of Control Specific Binding
T2 construct: Bromodomain

[6] = target: T3, EHMT1 (h) (Homo sapiens, UniProt Q9H9B1); test: Epigenetic enzyme assay, Methyltransferases (MTs); type: biochemical; conditions: for inhibition at 10 µM: read-out: % Inhibition of Control Values
T3 sequence (Q9H9B1 1-1298): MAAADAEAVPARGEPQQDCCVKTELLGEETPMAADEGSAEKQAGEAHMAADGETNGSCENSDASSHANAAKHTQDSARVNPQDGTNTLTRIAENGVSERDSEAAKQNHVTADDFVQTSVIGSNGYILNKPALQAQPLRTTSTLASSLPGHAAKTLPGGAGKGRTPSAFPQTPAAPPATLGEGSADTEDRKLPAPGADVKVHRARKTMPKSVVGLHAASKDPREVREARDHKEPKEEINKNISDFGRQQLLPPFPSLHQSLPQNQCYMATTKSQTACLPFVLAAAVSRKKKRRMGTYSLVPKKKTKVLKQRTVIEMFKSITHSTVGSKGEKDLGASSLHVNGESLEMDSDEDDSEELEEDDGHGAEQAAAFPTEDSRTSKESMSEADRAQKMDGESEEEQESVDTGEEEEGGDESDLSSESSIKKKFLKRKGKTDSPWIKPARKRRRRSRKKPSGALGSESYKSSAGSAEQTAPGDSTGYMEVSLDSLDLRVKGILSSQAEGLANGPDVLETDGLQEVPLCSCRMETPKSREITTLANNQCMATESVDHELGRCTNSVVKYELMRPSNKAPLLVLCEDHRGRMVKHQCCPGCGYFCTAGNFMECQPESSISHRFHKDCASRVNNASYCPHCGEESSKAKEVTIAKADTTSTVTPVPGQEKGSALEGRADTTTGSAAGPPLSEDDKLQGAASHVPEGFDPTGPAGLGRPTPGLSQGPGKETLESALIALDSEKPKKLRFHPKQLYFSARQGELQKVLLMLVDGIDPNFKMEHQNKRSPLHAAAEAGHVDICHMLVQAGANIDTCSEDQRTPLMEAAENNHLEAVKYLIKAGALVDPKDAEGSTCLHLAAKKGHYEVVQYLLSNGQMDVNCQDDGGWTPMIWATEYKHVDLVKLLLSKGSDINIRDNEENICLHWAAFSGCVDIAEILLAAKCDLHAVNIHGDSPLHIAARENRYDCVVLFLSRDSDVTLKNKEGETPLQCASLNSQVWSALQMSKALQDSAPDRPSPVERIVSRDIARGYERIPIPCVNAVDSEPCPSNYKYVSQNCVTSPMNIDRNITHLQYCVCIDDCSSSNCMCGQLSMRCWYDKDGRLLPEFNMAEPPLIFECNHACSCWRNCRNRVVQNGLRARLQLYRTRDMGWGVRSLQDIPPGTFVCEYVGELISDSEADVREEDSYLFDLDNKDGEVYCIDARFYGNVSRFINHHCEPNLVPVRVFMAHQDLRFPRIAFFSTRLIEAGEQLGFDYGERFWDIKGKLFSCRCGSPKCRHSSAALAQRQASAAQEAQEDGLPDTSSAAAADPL

[7] = target: ASH1L (Homo sapiens, UniProt Q9NR48); test: Epigenetic enzyme assay, Methyltransferases (MTs); type: biochemical; conditions: for inhibition at 10 µM: read-out: % Inhibition of Control Values
[8] = target: T4, CYP1A (Homo sapiens, UniProt P05177); test: Cytochrome P450 Inhibition (CYP panel); type: in vitro ADME; conditions: probe phenacetin
T4 sequence (P05177 1-516): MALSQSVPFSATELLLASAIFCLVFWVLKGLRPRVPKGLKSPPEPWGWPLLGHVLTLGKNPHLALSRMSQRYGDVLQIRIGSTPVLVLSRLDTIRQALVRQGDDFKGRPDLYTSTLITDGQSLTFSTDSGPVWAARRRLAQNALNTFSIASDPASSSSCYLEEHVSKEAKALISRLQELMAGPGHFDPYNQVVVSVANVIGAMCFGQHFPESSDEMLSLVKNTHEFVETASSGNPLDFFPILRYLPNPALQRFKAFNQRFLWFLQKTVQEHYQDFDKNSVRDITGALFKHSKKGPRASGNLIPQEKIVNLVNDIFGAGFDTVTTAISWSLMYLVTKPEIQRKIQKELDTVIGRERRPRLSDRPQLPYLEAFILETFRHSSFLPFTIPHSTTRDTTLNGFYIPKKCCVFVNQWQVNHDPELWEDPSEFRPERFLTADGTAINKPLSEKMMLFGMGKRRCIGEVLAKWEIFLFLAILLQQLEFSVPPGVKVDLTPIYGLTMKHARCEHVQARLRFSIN

[9] = target: T5, CYP1A (Phenacetin Substrate) (Homo sapiens, UniProt P05177); test: Cytochrome P450 Inhibition (CYP panel); type: in vitro ADME; conditions: read-out: IC50 (estimated)
T5 sequence (P05177 1-516): T4 sequence (P05177 1-516)

[10] = human, human liver microsomes, read-out: % inhibition
[11] = CYP1A (phenacetin sub.), Human liver microsomes, read-out: % Inhibition of Control Values

Chain of HDAC2 (h) (Q92769 whole entry): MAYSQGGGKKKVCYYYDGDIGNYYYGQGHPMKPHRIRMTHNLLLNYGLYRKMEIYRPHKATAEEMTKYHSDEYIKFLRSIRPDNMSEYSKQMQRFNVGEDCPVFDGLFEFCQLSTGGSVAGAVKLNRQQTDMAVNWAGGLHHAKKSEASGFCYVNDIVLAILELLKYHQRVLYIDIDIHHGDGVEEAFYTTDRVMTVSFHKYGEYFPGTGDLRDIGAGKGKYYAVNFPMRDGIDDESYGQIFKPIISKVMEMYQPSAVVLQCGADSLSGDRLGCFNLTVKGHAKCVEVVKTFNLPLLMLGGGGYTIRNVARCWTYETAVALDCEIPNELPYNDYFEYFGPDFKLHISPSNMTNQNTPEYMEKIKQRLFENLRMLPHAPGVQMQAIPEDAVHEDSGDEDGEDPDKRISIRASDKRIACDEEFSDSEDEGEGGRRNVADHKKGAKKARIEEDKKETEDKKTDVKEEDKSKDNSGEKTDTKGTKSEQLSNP
Chain of DNMT1 (h) (P26358 whole entry): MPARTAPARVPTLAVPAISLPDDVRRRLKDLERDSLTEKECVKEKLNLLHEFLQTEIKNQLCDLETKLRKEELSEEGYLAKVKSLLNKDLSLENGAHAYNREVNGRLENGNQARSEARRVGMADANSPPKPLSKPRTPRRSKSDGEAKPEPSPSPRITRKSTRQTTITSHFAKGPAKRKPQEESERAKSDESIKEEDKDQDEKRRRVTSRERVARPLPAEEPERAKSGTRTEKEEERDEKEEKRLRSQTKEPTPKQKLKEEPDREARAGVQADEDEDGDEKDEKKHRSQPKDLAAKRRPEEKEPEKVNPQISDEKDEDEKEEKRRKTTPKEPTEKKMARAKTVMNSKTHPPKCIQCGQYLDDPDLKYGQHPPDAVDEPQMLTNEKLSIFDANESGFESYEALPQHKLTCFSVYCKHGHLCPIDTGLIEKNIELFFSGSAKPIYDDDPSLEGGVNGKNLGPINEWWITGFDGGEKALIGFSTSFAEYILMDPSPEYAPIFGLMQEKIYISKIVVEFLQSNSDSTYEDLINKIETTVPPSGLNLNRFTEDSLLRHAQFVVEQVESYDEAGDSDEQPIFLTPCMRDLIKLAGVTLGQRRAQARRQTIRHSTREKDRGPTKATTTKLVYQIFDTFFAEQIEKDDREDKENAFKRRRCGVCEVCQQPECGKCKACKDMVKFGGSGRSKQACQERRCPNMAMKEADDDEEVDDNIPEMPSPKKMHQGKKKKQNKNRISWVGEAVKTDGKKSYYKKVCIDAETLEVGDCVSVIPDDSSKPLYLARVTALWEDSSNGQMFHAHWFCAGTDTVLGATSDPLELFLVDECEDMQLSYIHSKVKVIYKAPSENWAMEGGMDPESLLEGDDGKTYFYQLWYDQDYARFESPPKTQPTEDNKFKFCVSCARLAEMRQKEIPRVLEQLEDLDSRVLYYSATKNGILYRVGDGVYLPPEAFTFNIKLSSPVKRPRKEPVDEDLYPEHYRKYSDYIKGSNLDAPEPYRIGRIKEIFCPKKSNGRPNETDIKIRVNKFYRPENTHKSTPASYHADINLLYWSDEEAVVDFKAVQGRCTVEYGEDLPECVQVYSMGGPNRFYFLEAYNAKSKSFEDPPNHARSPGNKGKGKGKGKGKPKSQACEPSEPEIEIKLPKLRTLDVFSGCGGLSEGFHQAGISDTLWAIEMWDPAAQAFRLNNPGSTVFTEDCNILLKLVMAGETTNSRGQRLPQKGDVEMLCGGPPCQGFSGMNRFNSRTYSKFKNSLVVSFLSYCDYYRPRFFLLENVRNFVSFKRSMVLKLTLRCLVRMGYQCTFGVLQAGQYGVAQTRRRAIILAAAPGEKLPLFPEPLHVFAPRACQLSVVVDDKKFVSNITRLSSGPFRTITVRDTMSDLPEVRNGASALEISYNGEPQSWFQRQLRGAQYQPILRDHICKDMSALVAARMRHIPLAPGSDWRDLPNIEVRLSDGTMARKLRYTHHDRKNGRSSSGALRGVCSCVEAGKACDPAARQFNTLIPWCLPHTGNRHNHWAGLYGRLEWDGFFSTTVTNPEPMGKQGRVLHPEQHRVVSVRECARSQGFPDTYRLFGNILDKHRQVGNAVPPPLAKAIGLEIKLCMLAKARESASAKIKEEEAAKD
T2 sequence (P51531 1378-1506 limits assumed): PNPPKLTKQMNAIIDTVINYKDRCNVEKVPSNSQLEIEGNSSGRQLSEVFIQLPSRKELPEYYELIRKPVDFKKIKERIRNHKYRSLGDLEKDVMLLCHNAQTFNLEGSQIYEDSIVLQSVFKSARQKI
Chain of JARID1B (h) (Q9UGL1 whole entry): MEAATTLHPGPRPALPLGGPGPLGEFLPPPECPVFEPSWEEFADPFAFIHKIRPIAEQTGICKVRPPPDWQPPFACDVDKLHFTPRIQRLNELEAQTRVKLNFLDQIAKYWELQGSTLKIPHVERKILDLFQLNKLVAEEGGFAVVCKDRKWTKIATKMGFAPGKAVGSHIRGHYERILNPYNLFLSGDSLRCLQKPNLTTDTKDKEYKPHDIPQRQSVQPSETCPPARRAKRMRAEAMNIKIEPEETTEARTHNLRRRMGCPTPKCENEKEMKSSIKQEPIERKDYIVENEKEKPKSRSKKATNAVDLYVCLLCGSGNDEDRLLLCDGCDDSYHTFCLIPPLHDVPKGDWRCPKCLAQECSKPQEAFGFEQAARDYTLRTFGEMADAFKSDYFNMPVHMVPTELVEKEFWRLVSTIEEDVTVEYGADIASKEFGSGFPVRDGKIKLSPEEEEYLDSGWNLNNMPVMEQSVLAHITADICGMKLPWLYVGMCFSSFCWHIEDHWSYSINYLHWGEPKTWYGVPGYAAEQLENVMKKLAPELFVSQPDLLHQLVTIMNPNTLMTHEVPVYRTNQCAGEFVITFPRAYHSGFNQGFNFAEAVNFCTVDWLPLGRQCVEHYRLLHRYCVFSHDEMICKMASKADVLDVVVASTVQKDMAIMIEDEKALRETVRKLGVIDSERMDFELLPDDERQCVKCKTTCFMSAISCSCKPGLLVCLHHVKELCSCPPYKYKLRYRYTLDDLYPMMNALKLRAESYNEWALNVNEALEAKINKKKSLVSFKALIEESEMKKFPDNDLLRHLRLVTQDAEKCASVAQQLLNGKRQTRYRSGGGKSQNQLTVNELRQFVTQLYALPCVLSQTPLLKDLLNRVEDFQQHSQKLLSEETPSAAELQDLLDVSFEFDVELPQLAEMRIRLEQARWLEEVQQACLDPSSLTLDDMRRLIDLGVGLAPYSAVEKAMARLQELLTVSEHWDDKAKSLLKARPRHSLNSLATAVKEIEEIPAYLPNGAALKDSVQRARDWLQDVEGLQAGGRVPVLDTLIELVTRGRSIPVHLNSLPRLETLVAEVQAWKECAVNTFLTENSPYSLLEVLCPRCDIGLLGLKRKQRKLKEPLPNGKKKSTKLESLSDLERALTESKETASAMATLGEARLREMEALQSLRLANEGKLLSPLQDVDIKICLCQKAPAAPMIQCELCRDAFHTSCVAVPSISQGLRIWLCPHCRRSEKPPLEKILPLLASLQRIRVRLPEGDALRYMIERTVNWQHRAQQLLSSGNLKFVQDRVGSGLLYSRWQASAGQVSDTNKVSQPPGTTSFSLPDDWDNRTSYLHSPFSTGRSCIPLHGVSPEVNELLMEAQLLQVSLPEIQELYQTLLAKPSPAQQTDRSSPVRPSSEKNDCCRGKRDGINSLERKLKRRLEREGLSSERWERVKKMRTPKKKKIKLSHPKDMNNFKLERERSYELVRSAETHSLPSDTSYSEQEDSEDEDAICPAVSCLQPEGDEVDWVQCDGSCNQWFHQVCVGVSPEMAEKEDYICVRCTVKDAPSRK

| Compound | % Control Response ([1]; 10 μM, assay year 2015) | remaining activity at 10 µM ([1]; 10 μM, assay year 2015) [%] | IC50 ([1]; concentration-response 10 to 0.01 μM) | inhibition at 10 µM [2] [%] | inhibition at 10 µM [3] [%] | % Inhibition of Control Values ([4]; 10 μM) | inhibition at 10 µM ([4]; 10 μM) [%] | IC50 ([4]; Table 11, inhibition/concentration-response curve) [µM] | % Inhibition of Control Specific Binding ([5]; 10 μM) | inhibition at 10 µM [5] [%] | inhibition at 10 µM [6] [%] | inhibition at 10 µM [7] [%] | inhibition at 1 µM [8, 10] [%] | inhibition at 10 µM [8, 10] [%] | inhibition at 1 µM [8, 11] [%] | inhibition at 10 µM [8, 11] [%] | IC50 [9] [µM] | IC50 ([6]; read-out: Reference IC50) [µM] | IC50 ([7]; read-out: Reference IC50) [µM] |
| --- | --- | --- | --- | --- | --- | --- | --- | --- | --- | --- | --- | --- | --- | --- | --- | --- | --- | --- | --- |
| CC(C)=CCC[C@H](CO)[C@@H]1CC[C@@H](C)c2c1cc(C)c(O)c2O [Compound 1, 7,8,18-trihydroxyserrulat-14-ene] | potent inhibitor | 91 | 6.47 µM and 6.74 µM | 1 | 10 | significant inhibitory activity | 70 | 3.6 | significant inhibitory activity | 83 | 13 | 3 | 28 | 63 to 92 | 28 | 92 | < 10 |  |  |
| CC(C)=CCC[C@@H]1C(O)Oc2c(C)cc(O)c3c2[C@H]1CC[C@H]3C (stereo partly drawn) [Compound 2, 5,18-epoxyserrulat-14-en-8,18-diol] |  | 34 |  | 0 | 4 |  | 6 |  |  | 21 | 9 | 20 | 38 | 63 to 92 | 38 | 63 | < 10 |  |  |
| CC(C)=CCC[C@@H]1COc2c(C)cc(O)c3c2[C@H]1CC[C@H]3C [Compound 3, 5,18-epoxy-8-hydroxyserrulat-14-ene] |  | 27 |  | -2 | -5 |  | -2 |  |  | 18 | 63 | -54 |  |  |  |  |  |  |  |
| CC(C)=CCC[C@H](C)[C@@H]1CC[C@@H](C)c2c1cc(C)c(O)c2O [Compound 4, 7,8-dihydroxyserrulat-14-ene] |  |  |  |  |  |  |  |  |  |  |  |  |  | 63 to 92 | 14 | 85 | < 10 |  |  |
| Nc1ncnc2c1ncn2[C@@H]1O[C@H](CSCC[C@H](N)C(=O)O)[C@@H](O)[C@H]1O [SAH] |  |  |  |  |  |  |  |  |  |  |  |  |  |  |  |  |  | 0.18 | 9.1 |
